Here are results for 21 compounds from patent US20010053774A1, “Non-steroidal ligands for the estrogen receptor” (GLAXO WELLCOME INC.., priority 1994, published 2001).

Read-outs that look alike come from different tables or passages of the source.

Data set [1] deals with Ishikawa human endometrioma cell line. Kind of data set: Ishikawa cell functional assay of estrogenic activity (alkaline phosphatase induction). The settings on record: for EC50: Ishikawa-Var I cells, 2 days incubation, estrogen agonist activity, read-out: EC50 (concentration inducing 50% of maximal alkaline phosphatase activity); for Emax: Ishikawa, read-out: Emax (maximal alkaline phosphatase activity); for Emax / Emax (maximal alkaline phosphatase activity): percentage of the alkaline phosphatase activity induced by a saturating concentration of estradiol; for agonist activity (Emax) in the Ishikawa cell functional assay (in words): comparison with tamoxifen or within the series. The data set is classed as cell-based. The method, then: Subconfluent Ishikawa-Var I cells were removed from maintenance growth conditions and resuspended in phenol red-free DMEM-F12 containing 5% charcoal stripped FBS and 2 mM glutamine at a concentration of 58,500 cells/mL. Cells were plated at a density of 13,000 cells/cm^2 and placed in an incubator (37° C., 5% CO2) for 3 days. Cells were harvested and resuspended in phenol red-free DMEM-F12 containing 1% charcoal stripped FBS, 2 mM glutamine, 100 Units/mL penicillin and 100 μg/mL streptomycin to a concentration of 83,000 cells/mL. Cells were seeded at a density of 8300 cells/well in 96 well plates and allowed to attach overnight. Appropriate drug treatments at 2× concentrations were added in 0.1 mL of medium containing 0.2% DMSO. Plates were incubated for 2 days, media was aspirated and plates washed once with 300 μL 0.9% sterile saline. Plates were frozen at −70° C. and then warmed to RT. The attached cells were assayed for alkaline phosphatase activity by addition of 200 μL of 5 mM p-nitrophenylphosphate in 1 M diethanolamine, pH 10.4, containing 0.1% (w/v) Triton X-100, incubation at 37° C. for 30 min and measurement of absorbance at 405 nm on a Molecular Devices ThermoMax plate reader.

Data set [2] deals with 21 day old female SD rats. Kind of data set: in-vivo anti-uterotrophic activity in immature rats (uterine weight/body weight). The settings on record: 10 μmol/kg by gavage for 3 days, compared with tamoxifen. More on the design: species or system rat. The method, then:
In order to evaluate the compounds set forth above for in-vivo anti-uterotrophic activity, groups of five 21 day old female SD rats (30-35 g) were weighed and the average weights recorded for each treatment group as illustrated in FIG. 1. Stock solutions (10×) of the triphenylethylene analogs in ethanol were diluted with 0.5% methyl cellulose and 10 μmol/kg was dosed by gavage to the animals. Estradiol was dissolved in sesame oil and 100 nmol/kg dosed by subcutaneous injection. Animals were dosed for 3 days and sacrificed on day 4 by CO2 asphyxiation. The body weights were obtained, uteri removed, blotted and weighed. Data is expressed as uterine weight/body weight±standard error. Solid bars represent data from animals dosed with test compound alone. Open bars represent data from animals dosed with test compounds 6h prior to a dose of estradiol.

The target in a further data set is rat estrogen receptor (Rattus norvegicus, UniProt P06211). Conditions: for receptor affinity in the receptor binding assay (in words): comparison within the amide analog series. An excerpt:
Those skilled in the art will appreciate that several acceptable varieties of rat estrogen receptor binding assays are known and available for initial screening of the compounds of the present invention with respect to their ability to bind to the appropriate receptor. Compounds were initially evaluated as set forth below in an rat estrogen receptor binding assay for the ability to inhibit the binding of [^3H]-estradiol.

rat estrogen receptor, sequence (P06211 whole entry): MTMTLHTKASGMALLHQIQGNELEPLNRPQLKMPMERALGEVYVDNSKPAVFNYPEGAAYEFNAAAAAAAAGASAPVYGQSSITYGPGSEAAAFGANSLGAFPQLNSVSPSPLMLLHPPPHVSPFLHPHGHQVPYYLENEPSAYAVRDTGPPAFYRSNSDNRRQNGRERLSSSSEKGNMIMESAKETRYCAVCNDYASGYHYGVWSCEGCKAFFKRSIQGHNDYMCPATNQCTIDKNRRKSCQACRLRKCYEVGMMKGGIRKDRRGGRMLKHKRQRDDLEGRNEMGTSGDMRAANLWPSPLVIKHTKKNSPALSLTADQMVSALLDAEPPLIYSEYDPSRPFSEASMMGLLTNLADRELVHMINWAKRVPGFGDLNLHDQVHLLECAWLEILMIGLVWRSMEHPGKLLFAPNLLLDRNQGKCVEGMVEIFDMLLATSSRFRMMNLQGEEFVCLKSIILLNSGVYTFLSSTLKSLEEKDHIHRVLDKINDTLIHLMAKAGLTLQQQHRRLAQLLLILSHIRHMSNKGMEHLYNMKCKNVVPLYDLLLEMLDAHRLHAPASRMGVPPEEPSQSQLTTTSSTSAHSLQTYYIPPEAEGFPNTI

Take `CC/C(=C(\c1ccccc1)c1ccc(OCCN(C)C)cc1)c1ccccc1` [Tamoxifen, (Z)-1,2-diphenyl-1-[4-[2-(dimethylamino)ethoxy]phenyl]-1-butene, reference compound]: in data set [1] (Homo sapiens, 48 h), the EC50 is 33 nM. The Emax in data set [1] (Homo sapiens) worked out at 16.5 ± 0.6%.

The compound `CCC(=C(c1ccccc1)c1ccc(C=CC(N)=O)cc1)c1ccccc1` [compound 15, 3-[4-(1,2-Diphenyl-but-1-enyl)-phenyl]acrylamide] registered a melting point of 200 to 202 °C. For the same compound, the EC50 in data set [1] (Homo sapiens, 48 h) was found to be 8.6 nM. In data set [1] (Homo sapiens), the maximal response (Emax) is 8.9 ± 1.4%. In addition, the “agonist activity (Emax) in the Ishikawa cell functional assay (in words)” value (“agonist activity (Emax)” for short) in data set [1] was “lowest residual agonist activity”. Moreover, in data set [2], the “residual agonist activity, uterine weight/body weight (FIG. 1)” value is “less residual agonist activity than tamoxifen”.

Compound `CCC(=C(c1ccccc1)c1ccc(C=CC#N)cc1)c1ccccc1` [Compound No. 7, 3-[4-(1,2-Diphenyl-but-1-enyl)-phenyl]-acrylonitrile] showed a melting point of 101 to 102 °C.

As for `CCC(=C(c1ccccc1)c1ccc(C=CC(=O)NCCCOC)cc1)c1ccccc1` [compound 11, 3-[4-(1,2-Diphenyl-but-1-enyl)-phenyl]-N-(3-methoxy-propyl)-acrylamide], the melting point fell in the range of 132 to 135 °C. For the same compound, the EC50 in data set [1] (Homo sapiens, 48 h) worked out at 11 nM. Besides, the Emax in data set [1] (Homo sapiens) stood at 14 ± 1.5%.

With `CCC(=C(c1ccccc1)c1ccc(C2CC2C(=O)N(CC)CC)cc1)c1ccccc1` (stereo not shown) [compound 3, 2-[4-(1,2-Diphenyl-but-1-enyl)-phenyl]cyclopropanecarboxylic acid diethylamide], the melting point lay within 42 to 44 °C. Moreover, the EC50 in data set [1] (Homo sapiens, 48 h) came to 4.9 nM. The maximum response (Emax) in data set [1] (Homo sapiens) is 15.7 ± 1.8%.

`CCC(=C(c1ccccc1)c1ccc(C=CC(=O)N(C2CCCCC2)C2CCCCC2)cc1)c1ccccc1` [Compound No. 12, N,N-Dicyclohexyl-3-[4-(1,2-diphenyl-but-1-enyl)-phenyl] acrylamide]: in data set [1], the EC50 was 70 nM and the “Emax (maximal alkaline phosphatase activity)” value was 19.4 ± 2.0%. Moreover, on rat estrogen receptor, the “receptor affinity in the receptor binding assay (in words)” value was “reduced receptor affinity”.

In the case of `CCC(=C(c1ccccc1)c1ccc(C=CC(=O)NCCCO)cc1)c1ccccc1` [compound 22, 3-[4-(1,2-Diphenyl-but-1-enyl)-phenyl]-N-(3-hydroxy-propyl)-acrylamide], the melting point was 144 to 146 °C. Further, the EC50 in data set [1] (Homo sapiens, 48 h) was 17 nM. For the same compound, the maximal effect (Emax) in data set [1] (Homo sapiens) is 15.3 ± 2.4%.

As for `CCC(=C(c1ccccc1)c1ccc(C(C)=CC(=O)N(CC)CC)cc1)c1ccccc1` [Compound No. 5, 3-[4-(1,2-Diphenyl-but-1-enyl)-phenyl]-but-2-enoic acid diethylamide], the melting point was in the range of 109 to 111 °C. The EC50 in data set [1] (Homo sapiens, 48 h) turned out to be 7.3 nM. In addition, in data set [1] (Homo sapiens), the Emax worked out at 15 ± 3%.

Regarding `CCC(=C(c1ccccc1)c1ccc(C=CC(=O)OC)cc1)c1ccccc1` [Compound No. 6, 3-[4-(1,2-Diphenyl-but-1-enyl)-phenyl]-acrylic acid methyl ester], the melting point was 133 to 135 °C.

For the compound `C[C@]12CC[C@@H]3c4ccc(O)cc4CC[C@H]3[C@@H]1CC[C@@H]2O` [Estradiol, estradiol, reference compound], the EC50 in data set [1] (Homo sapiens, 48 h) was 0.01 nM. Moreover, in data set [1] (Homo sapiens), the maximal response (Emax) was 100%.

`CCC(=C(c1ccccc1)c1ccc(C=CC(=O)OC(C)(C)C)cc1)c1ccccc1` [Compound No. 8, 3-[4-(1,2-Diphenyl-but-1-enyl)-phenyl]-acrylic acid tert-butyl ester] yielded a melting point of 139 to 140 °C.

For the compound `CCC(=C(c1ccccc1)c1ccc(C=Cc2noc(C)n2)cc1)c1ccccc1` [Compound No. 18, 3-{2-[4-(1,2-Diphenyl-but-1-enyl)-phenyl]-vinyl}-5-methyl-[1,2,4]-oxadiazole], the melting point is 158 to 159 °C.

Turning to `CCC(=C(c1ccccc1)c1ccc(C=CC(N)=NO)cc1)c1ccccc1` [compound 17, 1-Amino-3-[4-(1,2-diphenyl-but-1-enyl)-phenyl]-prop-2-ene-1-one oxime], the melting point lay within 182 to 185 °C.

For `CCC(=C(c1ccccc1)c1ccc(C=CC(=O)N(CC)CC)cc1)c1ccccc1` [Compound No. 1, 3-[4-(1,2-Diphenyl-but-1-enyl)-phenyl]-N,N-diethyl acrylamide], in data set [1], the EC50 is 2.3 nM, the “agonist activity (Emax)” value was “significantly lower agonist activity (Emax) than tamoxifen” and the “Emax (maximal alkaline phosphatase activity)” value is listed as 11.9 ± 1.2%. Also, at rat estrogen receptor, the “receptor affinity in the receptor binding assay (in words)” value is “highest affinity”. For the same compound, the “estrogen receptor binding affinity relative to tamoxifen” value at rat estrogen receptor (higher affinity than tamoxifen) is recorded as “approx. 10 fold”.

Consider `CCCCCCCCN(C)C(=O)C=Cc1ccc(C(=C(CC)c2ccccc2)c2ccccc2)cc1` [compound 14, 3-[4-(1,2-Diphenyl-but-1-enyl)-phenyl]-N-methyl-N-octyl acrylamide], for which, in data set [1], the EC50 stood at 12 nM, the “agonist activity (Emax)” value is given as “lowest residual agonist activity” and the “Emax (maximal alkaline phosphatase activity)” value was determined as 6.3 ± 1.2%.

Take `CCC(=C(c1ccccc1)c1ccc(C=C(C)C(=O)N(CC)CC)cc1)c1ccccc1` [Compound No. 4, 3-[4-(1,2-Diphenyl-but-1-enyl)-phenyl]-N, N-diethyl-2-methyl-acrylamide]: the EC50 in data set [1] (Homo sapiens, 48 h) is 20 nM. Further, the maximal effect (Emax) in data set [1] (Homo sapiens) turned out to be 18.8 ± 2.3%.

`CCC(=C(c1ccccc1)c1ccc(C=CCO)cc1)c1ccccc1` [Compound No. 19, 3-[4-(1,2-Diphenyl-but-1-enyl)-phenyl]-prop-2-ene-1-ol] displayed a melting point of 80 to 83 °C.

On to `CCNC(=O)C=Cc1ccc(C(=C(CC)c2ccccc2)c2ccccc2)cc1` [compound 16, 3-[4-(1,2-Diphenyl-but-1-enyl)-phenyl]-N-ethyl acrylamide], for which, in data set [1], the EC50 was 18 nM and the “Emax (maximal alkaline phosphatase activity)” value was 11.8 ± 1.9%.

As for `CCC(=C(c1ccccc1)c1ccc(C=CC(=O)N(CC)CCN(C)C)cc1)c1ccccc1` [compound 13, N-(2-Dimethylamino-ethyl)-3-[4-(1,2-diphenyl-but-1-enyl)-phenyl]-N-ethyl acrylamide], in data set [1], the EC50 was 4.6 nM and the “Emax (maximal alkaline phosphatase activity)” value is listed as 16.5 ± 1.7%.

`CCC(=C(c1ccccc1)c1ccc(C=CC(=O)N2CCOCC2)cc1)c1ccccc1` [compound 10, 3-[4-(1,2-Diphenyl-but-1-enyl)-phenyl]-1-morpholin-4-yl-prop-2-en-1-one] gave a melting point of 150 to 154 °C. Besides, the EC50 in data set [1] (Homo sapiens, 48 h) amounted to 6.9 nM. Moreover, in data set [1] (Homo sapiens), the maximum response (Emax) was 14.8 ± 2.4%.

With `CCC(=C(c1ccccc1)c1ccc(C=CC(=S)N(CC)CC)cc1)c1ccccc1` [compound 21, 3-[4-(1,2-Diphenyl-but-1-enyl)-phenyl]-N,N-diethyl thioacrylamide], in data set [1], the EC50 is 6.9 nM and the “Emax (maximal alkaline phosphatase activity)” value was 18.8 ± 2.6%.
